How the values were obtained:
[1] = Cmax in cynomolgus monkey at 2 mg/kg, po by LC-MS/MS method; format: ADME, organism-based, Macaca fascicularis; parameters: dose 2 mg/kg, route oral; details: in vivo
[2] = Oral bioavailability in fasted dog at 2 mg/kg by LC-MS/MS method; format: ADME, organism-based, Canis lupus familiaris; details: in vivo
[3] = Volume of distribution at steady state in beagle dog at 1 mg/kg, iv by LC-MS/MS method; format: ADME, organism-based, Canis lupus familiaris; details: in vivo, read-out: Vdss
[4] = Tmax in beagle dog at 2 mg/kg, po by LC-MS/MS method; format: ADME, organism-based, Canis lupus familiaris; details: in vivo
[5] = Tmax in Sprague-Dawley rat at 5 mg/kg, po by LC-MS/MS method; format: ADME, organism-based; details: in vivo
[6] = Drug level in beagle dog at 2 mg/kg, po after 24 hrs by LC-MS/MS method; format: ADME, organism-based, Canis lupus familiaris; details: in vivo, read-out: Drug uptake
[7] = AUC in Sprague-Dawley rat at 5 mg/kg, po by LC-MS/MS method; format: ADME, organism-based; details: in vivo
[8] = Effective half life in cynomolgus monkey at 1 mg/kg, iv by LC-MS/MS method; format: ADME, organism-based, Macaca fascicularis; details: in vivo, read-out: t1/2eff (converted)
[9] = AUC in cynomolgus monkey at 2 mg/kg, po by LC-MS/MS method; format: ADME, organism-based, Macaca fascicularis; details: in vivo
[10] = Clearance in Sprague-Dawley rat at 2.5 mg/kg, iv by LC-MS/MS method; format: ADME, organism-based; details: in vivo
Rattus norvegicus = assay: Dose normalized AUC in Sprague-Dawley rat at 5 mg/kg, po by LC-MS/MS method; format: ADME, organism-based; details: in vivo
[11] = Drug level in Sprague-Dawley rat at 5 mg/kg, po after 24 hrs by LC-MS/MS method; format: ADME, organism-based; details: in vivo, read-out: Drug uptake
[12] = Oral bioavailability in Sprague-Dawley rat at 5 mg/kg by LC-MS/MS method; format: ADME, organism-based; details: in vivo
[13] = Clearance in cynomolgus monkey at 1 mg/kg, iv by LC-MS/MS method; format: ADME, organism-based, Macaca fascicularis; details: in vivo
[14] = Tmax in cynomolgus monkey at 2 mg/kg, po by LC-MS/MS method; format: ADME, organism-based, Macaca fascicularis; details: in vivo
[15] = Drug level in cynomolgus monkey at 2 mg/kg, po after 24 hrs by LC-MS/MS method; format: ADME, organism-based, Macaca fascicularis; details: in vivo, read-out: Drug uptake
[16] = Oral bioavailability in cynomolgus monkey at 2 mg/kg by LC-MS/MS method; format: ADME, organism-based, Macaca fascicularis; details: in vivo
[17] = Effective half life in beagle dog at 1 mg/kg, iv by LC-MS/MS method; format: ADME, organism-based, Canis lupus familiaris; details: in vivo, read-out: t1/2eff (converted)
[18] = Effective half life in Sprague-Dawley rat at 2.5 mg/kg, iv by LC-MS/MS method; format: ADME, organism-based; details: in vivo, read-out: t1/2eff (converted)
[19] = Volume of distribution at steady state in cynomolgus monkey at 1 mg/kg, iv by LC-MS/MS method; format: ADME, organism-based, Macaca fascicularis; details: in vivo, read-out: Vdss
[20] = Cmax in beagle dog at 2 mg/kg, po by LC-MS/MS method; format: ADME, organism-based, Canis lupus familiaris; parameters: dose 2 mg/kg, route oral; details: in vivo
[21] = Clearance in beagle dog at 1 mg/kg, iv by LC-MS/MS method; format: ADME, organism-based, Canis lupus familiaris; details: in vivo
[22] = Terminal half life in beagle dog at 1 mg/kg, iv by LC-MS/MS method; format: ADME, organism-based, Canis lupus familiaris; details: in vivo, read-out: beta t1/2 (converted)
[23] = Terminal half life in Sprague-Dawley rat at 2.5 mg/kg, iv by LC-MS/MS method; format: ADME, organism-based; details: in vivo, read-out: beta t1/2 (converted)
Canis familiaris = assay: Dose normalized AUC in beagle dog at 2 mg/kg, po by LC-MS/MS method; format: ADME, organism-based, Canis lupus familiaris; details: in vivo
[24] = AUC in beagle dog at 2 mg/kg, po by LC-MS/MS method; format: ADME, organism-based, Canis lupus familiaris; details: beagle, in vivo
[25] = Oral bioavailability in beagle dog at 2 mg/kg by LC-MS/MS method; format: ADME, organism-based, Canis lupus familiaris; details: in vivo
[26] = Terminal half life in cynomolgus monkey at 1 mg/kg, iv by LC-MS/MS method; format: ADME, organism-based, Macaca fascicularis; details: in vivo, read-out: beta t1/2 (converted)
[27] = Cmax in Sprague-Dawley rat at 5 mg/kg, po by LC-MS/MS method; format: ADME, organism-based; parameters: dose 5 mg/kg, route oral; details: in vivo
Cynomolgus monkey = assay: Dose normalized AUC in cynomolgus monkey at 2 mg/kg, po by LC-MS/MS method; format: ADME, organism-based, Macaca fascicularis; details: in vivo
[28] = Volume of distribution at steady state in Sprague-Dawley rat at 2.5 mg/kg, iv by LC-MS/MS method; format: ADME, organism-based; details: in vivo, read-out: Vdss

COC(=O)N[C@H](C(=O)N1CC(F)(F)C[C@H]1c1ncc(-c2ccc(-c3ccc4c(ccc5nc([C@@H]6C[Si](C)(C)CN6C(=O)[C@@H](NC(=O)OC)C(C)C)[nH]c54)c3)cc2)[nH]1)C(C)C.Cl.Cl
Cmax [1]: 180 nM
bioavailability [2]: 9%
Vd [3]: 1.3 L/kg
Tmax [4]: 2.7 h
Tmax [5]: 5.3 h
concentration at 24 h [6]: 40 nM
AUC [7]: 5 µM·h
half-life [8]: 17 h
AUC [9]: 4 µM·h
clearance [10]: 5.6 mL/min/kg
AUC/dose (Rattus norvegicus): 1 µM·h/mg/kg
concentration at 24 h [11]: 51 nM
bioavailability [12]: 28%
clearance [13]: 1.2 mL/min/kg
Tmax [14]: 4.7 h
concentration at 24 h [15]: 55 nM
bioavailability [16]: 11.7%
half-life [17]: 18 h
half-life [18]: 7.6 h
Vd [19]: 1.7 L/kg
Cmax [20]: 270 nM
clearance [21]: 0.8 mL/min/kg
half-life [22]: 26 h
half-life [23]: 9.7 h
AUC/dose (Canis familiaris): 2.1 µM·h/mg/kg
AUC [24]: 4.2 µM·h
bioavailability [25]: 8.7%
half-life [26]: 20 h
Cmax [27]: 330 nM
AUC/dose (Cynomolgus monkey): 2 µM·h/mg/kg
Vd [28]: 3.7 L/kg
